Experimental findings from patent US20220000848A1, “APPLICATION OF CHIDAMIDE” (SHENZHEN CHIPSCREEN BIOSCIENCES CO., LTD., priority 2018, published 2022) are described below.

SMILES strings stand for the structures.

For assay [1], the system named is relapsed or refractory follicular lymphoma (FL) accompanied with specific epigenetic regulatory gene mutation. Briefly: Multicenter, single-arm, open clinical trial of Chidamide tablet in relapsed or refractory follicular lymphoma with CREBBP and/or EP300 mutation (pre-test). The format is in vivo, human. To be noted: 11 patients accompanied with epigenetic mutation B-NHL, oral 30 mg 2 times a week. The method, then:
(§1) Test drugs: Chidamide tablets: off-white tablets, 5 mg/tablet. Produced by Shenzhen Chipscreen Biosciences Co., Ltd.
Dosage regimen: 2 times a week, 30 mg each time, the interval of two administrations should not be less than 3 days (for example, on Monday and Thursday, Tuesday and Friday, Wednesday and Saturday, etc.). The administration was performed 30 minutes after breakfast, every 3 weeks was a treatment cycle. During the entire study, all subjects should unceasingly receive the treatment under study until the appearance of any one of the following conditions: progression of disease, intolerable adverse reaction, death, withdrawal from treatment, withdrawal of the informed consent or loss to follow-up. […]
4. Having CREBBP and/or EP300 specific genetic mutation that was confirmed by second-generation sequencing;
Patients were orally administrated with Chidamide according to the regimen, and the following safety- and efficacy follow-ups were performed at the specified times:
Follow-up interval: Efficacy assessment was carried out once every 6 weeks; and efficacy follow-up was performed at the end of treatment.
Efficacy evaluation means: Evaluation of lymph nodes and organ lesions, skin lesions was performed by imaging methods (CT or PET/CT), clinical examination, bone marrow puncture and biopsy. The imaging methods used for patients must be the same at all follow-up points. […]

The subject of assay [2] is relapsed or refractory B cell lymphoma. Briefly: Phase II clinical trial of Chidamide monotherapy in relapsed or refractory B cell lymphoma. The format is in vivo, human. The following applies: patients, oral 30 mg 2 times a week; 8 cases evaluated of 10 enrolled. The procedure:
as §1
Dosage regimen: 2 times a week, 30 mg each time, the interval of two administrations should not be less than 3 days (for example, on Monday and Thursday, Tuesday and Friday, Wednesday and Saturday, etc.). The administration was performed 30 minutes after breakfast, every 3 weeks was a treatment cycle. During the entire study, all subjects should unceasingly receive the treatment under study until the appearance of any one of the following conditions: progression of disease, intolerable adverse reaction, death, withdrawal from treatment, withdrawal of the informed consent or loss to follow-up.
Number of cases: Simon's optimal two-stage design was adopted, 72 patients were enrolled, and pathological subtypes included: follicular lymphoma (FL) grade 1, grade 2 or grade 3, marginal zone B-cell lymphoma (MALT), lymphoplasmacytic lymphoma (LPL), small lymphocyte B cell lymphoma (SLL), diffuse large B cell lymphoma (DLBCL).
The patients were orally administrated with Chidamide according to the aforementioned dosage regimen, and the safety- and efficacy evaluation were performed as required at the specified time.
Efficacy evaluation time: efficacy evaluation was performed once every 6 weeks. […]

Turning to `Nc1cc(F)ccc1NC(=O)c1ccc(CNC(=O)/C=C/c2cccnc2)cc1` [Chidamide], in assay [1], the CR came out at 36.3% and the ORR is recorded as 72.7%. In assay [2], the ORR worked out at 37.5% and the benefit rate is given as 62.5%.
